Here are results for 7 compounds from patent US10647693B2, “Inhibitors of influenza virus replication, application methods and uses thereof” (SUNSHINE LAKE PHARMA CO., LTD., priority 2016, dated 2020).

The subject of one series is virus H1N1 A/Weiss/43. Description: microbe, parasite or virus in culture. It is filed as cell-based. The conditions noted are these: Influenza A virus, 120 h; inhibition of CPE caused by A/Weiss/43(H1N1) in MDCK cells, 5 days, CCK-8.
For series [1] the following is noted: SD, rat, in vivo, po, 5 mg/kg.
Experimental: (§1) Pharmacokinetic characteristics of the compound of the invention in SD rat were evaluated. The compounds disclosed herein were administered in form of a saline solution containing 5% DMSO, 5% Kolliphor HS 15 and 90% Saline. For intravenous administration (i.v.), the animals were administered with a dose of 1 mg/kg, and blood samples (0.3 mL) were collected at the time points of 0.083, 0.25, 0.5, 1.0, 2.0, 5.0, 7.0 and 24 h after drug administration, then each blood sample was processed to separate plasma by centrifugation at 3000 rpm or 4000 rpm for 10 minutes. For oral administration (p.o.), the animals were administered with a dose of 5 mg/kg, and blood samples (0.3 mL) were collected at the time points of 0.25, 0.5, 1.0, 2.0, 5.0, 7.0 and 24 h after drug administration, then each blood sample was processed to separate plasma by centrifugation at 3000 rpm or 4000 rpm for 10 minutes. Plasma samples were collected and stored at −20° C. or −70° C. until LC/MS/MS analysis.
Another series can be described thus: in vivo. Particulars: SD, rat.

Experimental for in vivo: as §1

In turn, `N#Cc1c(-c2c[nH]c3c(F)cc(F)cc23)nc(NC2C3CCC(CC3)C2C(=O)O)c(F)c1C1CC1` (racemic) [Example 8, (+/−)-trans-3-((5-cyano-4-cyclopropyl-6-(5,7-difluoro-1H-indol-3-yl)-3-fluoropyridin-2-yl)amino)bicyclo[2.2.2]octane-2-carboxylic Acid] yielded an EC50 in the series on virus H1N1 A/Weiss/43 of 5.09 nM.

For `N#Cc1c(-c2c[nH]c3c(F)cc(F)cc23)nc(NC2C3CCC(CC3)C2C(=O)O)c(F)c1-c1ccccc1` (racemic) [Example 14, (+/−)-trans-3-((5-cyano-6-(5,7-difluoro-1H-indol-3-yl)-3-fluoro-4-phenylpyridin-2-yl)amino)bicyclo[2.2.2]octane-2-carboxylic Acid], the 50% effective concentration (EC50) with virus H1N1 A/Weiss/43 is 10.5 nM. Further, the F in series [1] is reported as 74.6%. Besides, in “in vivo” (iv, 1 mg/kg), the AUC(0-inf) is 3520 ng·h/mL, the AUC(0-t) was found to be 3450 ng·h/mL, the highest level (Cmax) was 4130 ng/mL and the Tmax turned out to be 0.083 h. Further, in the series “in vivo” (iv, 1 mg/kg), the Vd amounted to 0.432 L/kg, the clearance amounted to 5.12 mL/min/kg and the half-life was 1.31 h. In “in vivo” (po, 5 mg/kg), the area under the curve AUC(0-inf) stood at 10300 ng·h/mL, the AUC(0-t) is 10100 ng·h/mL, the peak concentration (Cmax) came to 2980 ng/mL and the Tmax was found to be 1.22 h. Also, the half-life in the series “in vivo” (po, 5 mg/kg) was 1.46 h.

In the series on virus H1N1 A/Weiss/43, `N#Cc1c(-c2c[nH]c3c(F)cc(F)cc23)nc(NC2C3CCC(CC3)C2C(=O)O)c(F)c1-c1ccco1` (racemic) [Example 1, (+/−)-trans-3-((5-cyano-6-(5,7-difluoro-1H-indol-3-yl)-3-fluoro-4-(furan-2-yl)pyridin-2-yl)amino)bicyclo[2.2.2]octane-2-carboxylic Acid] returned a 50% effective concentration (EC50) of 0.27 nM. Also, the F in series [1] came to 83.9%. Moreover, in “in vivo” (iv, 1 mg/kg), the total exposure AUC(0-inf) came to 5710 ng·h/mL, the area under the curve AUC(0-t) was 5680 ng·h/mL, the Cmax was found to be 6560 ng/mL and the Tmax amounted to 0.083 h. In “in vivo” (iv, 1 mg/kg), the Vd came out at 0.231 L/kg, the clearance is 3.86 mL/min/kg and the half-life was 1.24 h. Further, in “in vivo” (po, 5 mg/kg), the AUC(0-inf) came out at 21600 ng·h/mL, the AUC(0-t) is 21300 ng·h/mL, the Cmax is 5780 ng/mL and the time to peak (Tmax) came to 1.1 h. Also, the half-life in the series “in vivo” (po, 5 mg/kg) was 1.52 h.

In the series on virus H1N1 A/Weiss/43, `Cn1cc(-c2c(F)c(N[C@H]3C4CCC(CC4)[C@@H]3C(=O)O)nc(-c3c[nH]c4c(F)cc(F)cc34)c2C#N)cn1` [Example 12a, (2S,3S)-3-((5-cyano-6-(5,7-difluoro-1H-indol-3-yl)-3-fluoro-4-(1-methyl-1H-pyrazol-4-yl)pyridin-2-yl)amino)bicyclo[2.2.2]octane-2-carboxylic Acid] displayed an EC50 of 0.96 nM.

The compound `Cn1ccc2c(NC3C4CCC(CC4)C3C(=O)O)nc(-c3c[nH]c4ncc(F)cc34)cc21` (racemic) [Example 20, (+/−)-trans-3-((6-(5-fluoro-1H-pyrrolo[2,3-b]pyridin-3-yl)-1-methyl-1H-pyrrolo[3,2-c]pyridin-4-yl)amino)bicyclo[2.2.2]octane-2-carboxylic Acid] showed a half-maximal effective concentration (EC50) with virus H1N1 A/Weiss/43 of 2.58 nM.

On to `N#Cc1c(-c2c[nH]c3c(F)cc(F)cc23)nc(NC2C3CCC(CC3)C2C(=O)O)c(F)c1-c1ccc(C(F)(F)F)cc1` (racemic) [Example 3, (+/−)-trans-3-((5-cyano-6-(5,7-difluoro-1H-indol-3-yl)-3-fluoro-4-(4-trifluoromethylphenyl)pyridin-2-yl)amino)bicyclo[2.2.2]octane-2-carboxylic Acid], for which the F in series [1] is 104.6%. In “in vivo” (iv, 1 mg/kg), the AUC(0-inf) turned out to be 2620 ng·h/mL, the AUC(0-t) was 2580 ng·h/mL, the concentration peaked (Cmax) at 4340 ng/mL and the time to peak (Tmax) turned out to be 0.083 h. Also, in the series “in vivo” (iv, 1 mg/kg), the Vd amounted to 1.98 L/kg, the clearance is 7.18 mL/min/kg and the half-life is 1.13 h. Also, in the series “in vivo” (po, 5 mg/kg), the total exposure AUC(0-inf) came to 13100 ng·h/mL, the AUC(0-t) came out at 12600 ng·h/mL, the Cmax is 8860 ng/mL and the Tmax came out at 0.35 h. The compound also had a half-life in “in vivo” (po, 5 mg/kg) of 1.76 h.

Take `N#Cc1c(-c2c[nH]c3ncc(F)cc23)nc(NC2C3CCC(CC3)C2C(=O)O)c(F)c1C1CC1` (racemic) [Example 9, (+/−)-trans-3-((5-cyano-4-cyclopropyl-3-fluoro-6-(5-fluoro-1H-pyrrolo[2,3-b]pyridin-3-yl)pyridin-2-yl)amino)bicyclo[2.2.2]octane-2-carboxylic Acid]: the midpoint of the response with virus H1N1 A/Weiss/43, the EC50, lay at 0.49 nM. The F in series [1] was 65.2%. Besides, in the series “in vivo” (iv, 1 mg/kg), the AUC(0-inf) was 2710 ng·h/mL, the AUC(0-t) amounted to 2640 ng·h/mL, the highest concentration (Cmax) was determined as 3640 ng/mL and the time to peak (Tmax) worked out at 0.083 h. In the series “in vivo” (iv, 1 mg/kg), this compound had a Vd of 0.551 L/kg, a clearance of 5.46 mL/min/kg and a half-life of 2.15 h. In “in vivo” (po, 5 mg/kg), the total exposure AUC(0-inf) turned out to be 8230 ng·h/mL, the exposure AUC(0-t) turned out to be 8140 ng·h/mL, the maximum concentration (Cmax) came to 2850 ng/mL and the Tmax was found to be 0.46 h. In addition, the half-life in the series “in vivo” (po, 5 mg/kg) is 3.39 h.

One may read the EC50 as the concentration giving half of the maximal effect. High values mean a less potent agent, low ones a more potent agent. What is called AUC(0-inf) is total exposure, with the tail of the curve extrapolated. The AUC(0-t) is the area under the concentration-time curve up to a stated or last time point. A word on the Cmax: it is the maximum level reached in the sampled fluid or tissue. Usually Tmax stands for the time from dosing to the highest level. The term Vd denotes a proportionality between amount in the body and measured concentration, not a real space. Lower therefore signals confinement near the circulation. As a reminder, the clearance is the volume of plasma or blood freed of the substance per unit of time. Read a high clearance as a high capacity for elimination. In general, half-life refers to the time needed for the level to fall by half in the phase considered. Read a high half-life as slow loss.
